Several values for one entry are separate records, joined by “and”; a condition that tells them apart may be missing. Equal values may be shown once. Read-outs that look alike come from different tables or passages of the source. A value given as a limit tells only on which side of the number the result lay.

Series [1] is described as follows: Acute toxicity LD50 in ICR mice (Test Example 11). As to conditions: mouse, in vivo, one week, Provit method. The method, then: As test animals, ICR-strain mice (male) were used. According to the conventional procedure, suspension or solution of test sample was administered to the animals. From the number of the died animals until one week after the administration, LD50 values were obtained by Provit method.

The test system of series [2] is mast cell in abdominal cavity. The series can be described thus: Inhibition of histamine release from mast cell in abdominal cavity in rat (Test Example 6). As to conditions: for activity at 1000 µM / activity at 100 µM / activity at 10 µM / activity at 1 µM: Rattus norvegicus, Mast cell, 20 min, DNP-Ascaris 20 microgramms/ml, read-out: Amount of histamine released from peritoneal mast cell (Control = 100); for activity at 1000 µM: 10^-3 M; for activity at 100 µM: 10^-4 M; for activity at 10 µM: 10^-5 M; for activity at 1 µM: 10^-6 M. The class given is cell-based. The method, then:
Examination was made on the activity of inhibition of histamine release from mast cell by antigen-antibody reaction.
Swine ascaris extract solution was dinitrophenylated according to Aisen's method, dialysed, and lyophilized. The product was administered as antigen together with Bordetella Pertussis vaccine subcutaneously into the foot pad of rat. Eight days later, blood was taken to obtain antiserum. The PCA titer for this antiserum in rat was 32 to 64.
Heparin-containing PBS was injected intraperitoneally to rat which was sacrificed by exsanguination, after which the abdomen was well massaged to collect the injected PBS, which was purified by washing several times by centrifugation. The number of the mast cells contained in the solution was determined and adjusted to the designed concentration. As to method of sensitizing the cell, the above cell suspension (6 ml, 2×10^6 cells/ml) was treated with anti-DNP-Ascaris rat serum (PCA titer 32) (6 ml) and the mixture was incubated in the presence of hepain at 37° C. for 2 hours.
To the sensitized mast cell suspension the solution of the drug to be tested was added, and the mixture was preliminarily incubated at 37° C. for 12 minutes. After addition of the solution of antigen DNP-Ascaris (final concentration, 20 microgramms/ml), the mixture was further incubated for 20 minutes. After completion of the reaction, the solution was centrifuged (500 G, 10 min.) under a low temperature to obtain a supernatant solution. Histamine contained in the supernatant solution was subjected to fluorometry by crthophthalaldehyde method.

Series [3] has as its system passive cutaneous anaphylaxis (PCA). The series can be described thus: Anti-passive cutaneous anaphylaxis (PCA) activity in rats (Test Example 2). As to conditions: Rattus norvegicus, N 10; for inhibition in vivo at 10 mg/kg: 10 mg/kg PO; for inhibition in vivo at 50 mg/kg: 50 mg/kg PO; for inhibition in vivo at 100 mg/kg: 100 mg/kg PO; for inhibition in vivo at 200 mg/kg: 200 mg/kg PO. The class given is in vivo, Wistar strain rats. As for the experimental part:
(§1) Wistar strain rats were sensitized with ovalbumin using aluminium hydroxide gel and Bordetella Pertussis vaccine as adjuvants. Dilutions of antiserum (16-fold and 32-fold) obtained by collecting blood samples 14 days later were administered subcutaneously in the dorsal skin of the rats of the same strain at the rate of 0.1 ml per spot, and the rats were grown for 48 hours. One hour after peroral administration of the sample solution, a mixture of antigen ovalbumin and Evans-blue dye was administered to the tail venous of the animal according to the ordinary procedure. Thirty minutes later, the animals were sacrificed by exsanguination, and the areas of blue spots (long diameter×short diameter) eliciting on the portion of the antiserum injection at the dorsal skin were measured to obtain the rate of inhibition based on the average value shown by the control animals.

For series [4], the system named is Mast cell in thoracic cavity. The series can be described thus: Release of histamine by dextran (T-500), mast cell in thoracic cavity (Test Example 12). Type of series: cell-based, rat. As for the experimental part: (§2) Collection of mast cells in abdominal cavity and thoracic cavity and sensitizing of cells were conducted in similar manners to those in Test Example 10, respectively.
(§3) The sample solution was treated with 105 microgramms/ml phosphatidylserin PBS solution (0.5 ml) and incubated at 37° C. for 30 minutes, followed by addition of 25 mg/ml dextran (T-500) PBS solution (0.5 ml) and further incubation for 15 minutes.
(§4) This is conducted in a manner similar to that in Test Example 10.

The nature of series [5]: Acute toxicity LD50 in mice (Test Example 8). As to conditions: mouse, in vivo, one week, Probit method. As for the experimental part: ddy-Strain mice (male) and Wistar strain rats were used to obtain LD50 values.
According to the ordinary procedure, suspension or solution of test sample was administered to the animals. From the number of the died animals until one week after the administration, LD50 values were obtained by Probit method.

In series [6] the test system is mast cell in abdominal cavity. The series can be described thus: Release of histamine by dextran (T-500), mast cell in abdominal cavity (Test Example 12). Type of series: cell-based, rat. The method, then: as §2, §3, §4
In series [7] the test system is passive cutaneous anaphylaxis (PCA). The series can be described thus: Anti-passive cutaneous anaphylaxis activity (PCA) in rats (Test Example 9). The class given is in vivo. As to conditions: Rattus norvegicus, po, 10 animals. As for the experimental part:
as §1
This test was conducted in a manner similar to that in Test Example 2, except that the dilutions of antiserum were 12- and 24-folds.

The subject of series [8] is mast cell in abdominal cavity. The series can be described thus: Release of histamine by antigen DNP-Ascaris, mast cell in abdominal cavity (Test Example 12). The class given is cell-based, rat. As to conditions: 10^-3 M; stronger than DSCG. As for the experimental part: as §2
(1) Preparation of DNP-Ascaris antiserum was conducted in manner similar to that in Test Example 6.
This is conducted in amanner similar to that in Test Example 10.
as §4

A further series concerns hyaluronidase. As to conditions: known from the literature; cited from earlier work.
The next series deals with SRS-A. The series can be described thus: Anti-SRS-A activity, contraction of guinea pig ileum by crude SRS-A solution. Also on record: key to Anti-SRS-A activity (rate of inhibition against the contraction amount): % inhibition of SRS-A-induced ileum contraction. The method, then:
A piece of lungs of guinea pig sensitized with ovalbumin was incubated with antigen ovalbumin at 37° C. for 20 minutes to obtain a supernatant solution, which was used as a crude SRS-A solution.
A piece of ileum of normal guinea pig was suspended in Magnus tube filled with Tyrode's solution and incubated with the solution of drug to be examined for a certain duration, and the contraction of the piece of ileum induced by adding the above crude SRS-A solution was determined on the basis of the contraction rate attributed to hystamine dihydrochloride 10^-6 M. The rate of inhibition against the contraction amount was taken as anti-SRS-A activity.

Series [9] has as its system anaphylaxis reaction to inhalated antigen. The series can be described thus: Antigen inhalation test on passive sensitized guinea pig (experimental asthma model). Type of series: in vivo. As to conditions: 200 mg/kg po.
Protocol: The test compound and Tranilast were respectively suspended at the time of use in 5% gum arabic solution containing 0.1% Tween 80 at the rate of 40 mg/ml, and were perorally administered at the rate of 0.5 ml per 100 g body weight of the animal.
DSCG was dissolved at the time of use in physiological saline solultion for injection at the rate of 5.0 mg/ml, and was intravenously injected at the rate of 0.1 ml per 100 g body weight of the animal.
Anti-ovalbumin rabbit serum diluted with physiological saline solution for injection so as tc contain anti-ovalbumin rabbit antibody at the rate of 0.187 mg N/ml was intravenously administered to guinea pig at the rate of 0.1 ml per 100 g of body weight and it was passively sensitized.
Twenty-four hours later, the suspension of the compound prepared in (1) above was perorally or intravenously administered to the animal. The animal was put in the inhalation chamber one hour after the administration in case of the peroral administration and five minutes after the administration in case of the intravenous administration, and 2% physiological saline solution of antigen ovalbumin was inhaled by spraying. Over 10 minutes' period from the time immediately after the forced inhalation, the time until its fall attributed to anaphylaxis reaction was recorded, and the numbers of alive and dead animals after lapse of 10 minutes were also counted.
The mark [10] stands for this setting: intravenous, read-out: LD50 Value (mg/kg of body weight) Intravenous administration.
[11] abbreviates: read-out: Average Inhibition Rate (%) Antiserum Dilution: × 16.
Where [12] appears, read: read-out: Average Inhibition Rate (%) Antiserum Dilution: × 32.
[13] abbreviates: read-out: Inhibition, Anti-serum Dilution: × 12.
Setting [14] is: read-out: Inhibition, Anti-serum Dilution: × 24.

With `O=c1oc(C(=Cc2ccccc2)c2nc3ccccc3c(=O)o2)nc2ccccc12` [Compound 52, 2,2'-phenylethenilidenebis(3,1-benzoxazine-4-one)], the LD50 at 168 h in [1] (po, peroral, read-out: LD50 Value (mg/kg of body weight) Peroral administration) is more than 10000 mg/kg. In [1] (setting [10]), the LD50 at 168 h was found to be 319 mg/kg. In series [2], the activity at 1000 µM turned out to be 21%, the activity at 100 µM was determined as 60%, the activity at 10 µM amounted to 68% and the activity at 1 µM came to 70%. Besides, the “inhibition of release of histamine from the mast cell (in words)” value in series [2] (even at the low concentration of 10^-6 M) was “inhibiting release of histamine”. Moreover, in [3] (setting [11]), the inhibition in vivo at 10 mg/kg amounted to 20.6%, the inhibition in vivo at 50 mg/kg was 37.9% and the inhibition in vivo at 100 mg/kg was 45%. For the same compound, in series [3] (setting [12]), the inhibition in vivo at 10 mg/kg came to 29.4%, the inhibition in vivo at 50 mg/kg is 38.3% and the inhibition in vivo at 100 mg/kg was 47.1%.
Consider `CCOC(=O)c1ccccc1NC(=O)C(=Cc1ccccc1)C(=O)Nc1ccccc1C(=O)OCC` [Compound 14, Diethyl 2,2'-[(1,3-dioxo-2-phenylmethylene-1,3-propanediyl)diimino]bisbenzoate], for which the “Effect on release of histamine by dextran (T-500), Mast cell in thoracic cavity (control 100)” value in [4] (10^-4, 15 min) is 55.6. In addition, the activity at 1000 µM is 42.2% in series [4] (Rattus norvegicus, Mast cell, 0.25 h, 10^-3 M, read-out: Effect on release of histamine by dextran (T-500), Mast cell in thoracic cavity (control 100)) and 40.2% in [6] (Rattus norvegicus, Mast cell, 0.25 h, 10^-3 M, read-out: Effect on release of histamine by dextran (T-500), Mast cell in abdominal cavity (control 100)). The LD50 at 168 h is 347 mg/kg in [1] (setting [10]); 299 mg/kg in series [5] (iv, read-out: LD50 value (mg/kg body weight) Mouse i.v.); more than 10000 mg/kg in [5] (po, read-out: LD50 value (mg/kg body weight) Mouse p.o.). In series [6] (10^-4 and 10^-3 M, almost the same as DSCG), the “histamine release inhibiting activity, dextran (T-500) (in words)” value was “histamine release inhibiting activities”. For the same compound, in series [6] (Rattus norvegicus, Mast cell, 0.25 h, 10^-4 M, read-out: Effect on release of histamine by dextran (T-500), Mast cell in abdominal cavity (control 100)), the activity at 100 µM came to 94.5%. For the same compound, the inhibition in vivo at 10 mg/kg was determined as 29.8% in series [7] (setting [13]), 31.3% in series [7] (setting [14]), 38.6% in series [3] (setting [11]) and 38.7% in series [3] (setting [12]). In addition, the inhibition in vivo at 50 mg/kg in series [7] (setting [13]) was 36.7%; in series [7] (setting [14]), 40.5%; in [3] (setting [11]), 41.9%; in series [3] (setting [12]), 72.2%. Moreover, the “histamine release inhibiting activity, antigen DNP-Ascaris (in words)” value in series [8] is reported as “histamine release inhibiting activity”. Also, the inhibition in vivo at 100 mg/kg in series [3] (setting [11]) is 59.3%; in [3] (setting [12]), 85.1%.
Regarding `COc1ccc(/C=C/C(=O)Nc2ccccc2C(=O)O)cc1OC` [Tranilast, reference compound], the inhibition in vivo at 200 mg/kg in [7] (setting [13]) amounted to 2.1%; in series [7] (setting [14]) it was 10.7%; in series [3] (setting [11]), 1.8%; in series [3] (setting [12]) it was 15.8%. Besides, the activity at 1000 µM in [2] is 29%. Moreover, in [2], the activity at 100 µM amounted to 67%. In addition, the activity at 10 µM in series [2] amounted to 95%. Also, in series [2], the activity at 1 µM was 95%. For the same compound, the “effect on hyaluronidase activity (in words)” value in the series on hyaluronidase is listed as “inhibit hyaluronidase activity”. For the same compound, the “Anti-SRS-A activity (rate of inhibition against the contraction amount)” value in the series with SRS-A (10^-3 M), in the series on SRS-A (10^-4 M), with SRS-A (10^-5 M) and in the series with SRS-A (10^-6 M) was 0 each time. For the same compound, the “anti-SRS-A activity (in words)” value in the series with SRS-A (compound 11 at a concentration of 10^-3 M) is given as “no activity”. In addition, the “Extended rate (%)” value in [9] is -3.0%. Besides, the “preventive effect on anaphylaxis reaction (in words)” value in series [9] is reported as “no activity”. Further, the “Average time for falling Mean ± S.E.” value in [9] (N 5) is 150.8 ± 14.8 s. For the same compound, the “Required time (sec.) for falling and Number of death (#), single animals” value in series [9] (N 5, observed 10 minutes, # shows death) is 116 s and 126 s and 141 s and 181 s and 190 s.
As to polymixin B, the “effect on hyaluronidase activity (in words)” value in the series on hyaluronidase is given as “activate hyaluronidase”.

The values are drawn from patent publication US4822791A, “Pharmaceutical compositions of-2,2-1,1-[bis-2,2'-(3,1-benzoxazin-4-one)9 ethylenes” (priority 1984, dated 1989).
